From patent publication US10738045B2, “Pesticidally active heterocyclic derivatives with sulphur and cyclopropyl containing substituents” (SYNGENTA PARTICIPATIONS AG, priority 2015, dated 2020)

Key:
Assay in all cases: whole plant or invertebrate
Format in all cases: in vivo
[1] = system: Bemisia tabaci (Cotton White Fly); settings: foliar, 144 h, application rate of 200 ppm, cotton leaf discs, adult white flies, 6 days after incubation
Method: Cotton leaf discs were placed on agar in 24-well microtiter plates and sprayed with aqueous test solutions prepared from 10,000 ppm DMSO stock solutions. After drying the leaf discs were infested with adult white flies. The samples were checked for mortality 6 days after incubation.

[2] = system: Diabrotica balteata (Corn Root Worm); settings: 96 h, application rate of 200 ppm, L2 larvae, 4 days after infestation, read-out: effect in at least one of the two categories (mortality or growth inhibition)
Method: Maize sprouts placed onto an agar layer in 24-well microtiter plates were treated with aqueous test solutions prepared from 10,000 ppm DMSO stock solutions by spraying. After drying, the plates were infested with L2 larvae (6 to 10 per well). The samples were assessed for mortality and growth inhibition in comparison to untreated samples 4 days after infestation.

[3] = system: Euschistus heros (Neotropical Brown Stink Bug); settings: in Glycine max, 120 h, application rate of 200 ppm, N2 nymphs, 5 days after infestation, read-out: effect in at least one of the two categories (mortality or growth inhibition)
Method: Soybean leaves on agar in 24-well microtiter plates were sprayed with aqueous test solutions prepared from 10,000 ppm DMSO stock solutions. After drying the leaves were infested with N2 nymphs. The samples were assessed for mortality and growth inhibition in comparison to untreated samples 5 days after infestation.

[4] = system: Frankliniella occidentalis (Western Flower Thrips); settings: foliar, 168 h, application rate of 200 ppm, sunflower leaf discs, population of mixed ages, 7 days after infestation
Method: Sunflower leaf discs were placed on agar in 24-well microtiter plates and sprayed with aqueous test solutions prepared from 10,000 DMSO stock solutions. After drying the leaf discs were infested with a Frankliniella population of mixed ages. The samples were assessed for mortality 7 days after infestation.

[5] = system: Myzus persicae (Green Peach Aphid); settings: foliar, 144 h, application rate of 200 ppm, sunflower leaf discs, population of mixed ages, 6 days after infestation
Method: Sunflower leaf discs were placed onto agar in a 24-well microtiter plate and sprayed with aqueous test solutions prepared from 10,000 ppm DMSO stock solutions. After drying, the leaf discs were infested with an aphid population of mixed ages. The samples were assessed for mortality 6 days after infestation.

[6] = system: Plutella xylostella (Diamond Back Moth); settings: 120 h, application rate of 200 ppm, L2 larvae, 5 days after infestation, read-out: effect in at least one of the two categories (mortality or growth inhibition)
Method: 24-well microtiter plates with artificial diet were treated with aqueous test solutions prepared from 10,000 ppm DMSO stock solutions by pipetting. After drying, the plates were infested with L2 larvae (10 to 15 per well). The samples were assessed for mortality and growth inhibition in comparison to untreated samples 5 days after infestation.

[7] = system: Spodoptera littoralis (Egyptian Cotton Leaf Worm); settings: foliar, 72 h, application rate of 200 ppm, L1 larvae, 3 days after infestation, read-out: control (mortality, anti-feeding effect or growth inhibition)
Method: Cotton leaf discs were placed onto agar in 24-well microtiter plates and sprayed with aqueous test solutions prepared from 10,000 ppm DMSO stock solutions. After drying the leaf discs were infested with five L1 larvae. The samples were assessed for mortality, anti-feeding effect, and growth inhibition in comparison to untreated samples 3 days after infestation.

[8] = system: Spodoptera littoralis (Egyptian Cotton Leaf Worm); settings: 144 h, test rate of 12.5 ppm, lettuce grown on treated agar, 6 days after infestation, read-out: effect in at least one of the three categories (mortality, anti-feeding, or growth inhibition)
Description: Test compounds were applied by pipette from 10,000 ppm DMSO stock solutions into 24-well plates and mixed with agar. Lettuce seeds were placed onto the agar and the multi well plate was closed by another plate which contained also agar. After 7 days the compound was absorbed by the roots and the lettuce grew into the lid plate. The lettuce leaves were then cut off into the lid plate. Spodoptera eggs were pipetted through a plastic stencil onto a humid gel blotting paper and the lid plate was closed with it. The samples were assessed for mortality, anti-feedant effect and growth inhibition in comparison to untreated samples 6 days after infestation.

[9] = system: Thrips tabaci (Onion Thrips); settings: foliar, 144 h, application rate of 200 ppm, sunflower leaf discs, population of mixed ages, 6 days after infestation
Method: Sunflower leaf discs were placed on agar in 24-well microtiter plates and sprayed with aqueous test solutions prepared from 10,000 ppm DMSO stock solutions. After drying the leaf discs were infested with a thrips population of mixed ages. The samples were assessed for mortality 6 days after infestation.

[10] = system: Myzus persicae (Green Peach Aphid); settings: 144 h, test rate of 24 ppm, roots of pea seedlings in test solution, 6 days
Method: Roots of pea seedlings infested with an aphid population of mixed ages were placed directly into aqueous test solutions prepared from 10,000 DMSO stock solutions. The samples were assessed for mortality 6 days after placing seedlings into test solutions.

[11] = system: Tetranychus urticae (Two-Spotted Spider Mite); settings: foliar, 192 h, application rate of 200 ppm, bean leaf discs, mixed population (mobile stages), 8 days after infestation
Method: Bean leaf discs on agar in 24-well microtiter plates were sprayed with aqueous test solutions prepared from 10,000 ppm DMSO stock solutions. After drying the leaf discs were infested with a mite population of mixed ages. The samples were assessed for mortality on mixed population (mobile stages) 8 days after infestation.

CCS(=O)(=O)c1cc(C(F)(F)F)cnc1-c1nc2cc(C(F)(F)F)n(C3CC3)c(=O)c2n1C [Compound A1, 5-cyclopropyl-2-[3-ethylsulfonyl-5-(trifluoromethyl)-2-pyridyl]-3-methyl-6-(trifluoromethyl) imidazo[4,5-c]pyridin-4-one]
≥ 80%: mortality at 200 ppm [1] | percent effect (mortality or growth inhibition) at 200 ppm [2] | percent effect (mortality or growth inhibition) at 200 ppm [3] | mortality at 200 ppm [4] | mortality at 200 ppm [5] | percent effect (mortality or growth inhibition) at 200 ppm [6] | percent control (mortality, anti-feedant effect or growth inhibition) at 200 ppm [7] | percent effect (mortality, anti-feeding or growth inhibition) at 12.5 ppm [8] | mortality at 200 ppm [9]

CCS(=O)(=O)c1cc(-n2ccc(C(F)(F)F)n2)cnc1-c1nc2cc(C(F)(F)F)n(C3CC3)c(=O)c2n1C [Compound A3, 5-cyclopropyl-2-[3-ethylsulfonyl-5-[3-(trifluoromethyl)pyrazol-1-yl]-2-pyridyl]-3-methyl-6-(trifluoromethyl)imidazo[4,5-c]pyridin-4-one]
≥ 80%: percent effect (mortality or growth inhibition) at 200 ppm [2] | percent effect (mortality or growth inhibition) at 200 ppm [3] | percent effect (mortality or growth inhibition) at 200 ppm [6] | percent control (mortality, anti-feedant effect or growth inhibition) at 200 ppm [7]

CCS(=O)(=O)c1cc(Br)cnc1-c1nc2cc(C(F)(F)F)n(C3CC3)c(=O)c2n1C [Compound A5, 2-(5-bromo-3-ethylsulfonyl-2-pyridyl)-5-cyclopropyl-3-methyl-6-(trifluoromethyl)imidazo[4,5-c]pyridin-4-one]
≥ 80%: mortality at 200 ppm [1] | percent effect (mortality or growth inhibition) at 200 ppm [2] | percent effect (mortality or growth inhibition) at 200 ppm [3] | mortality at 200 ppm [5] | percent effect (mortality or growth inhibition) at 200 ppm [6] | percent control (mortality, anti-feedant effect or growth inhibition) at 200 ppm [7] | percent effect (mortality, anti-feeding or growth inhibition) at 12.5 ppm [8] | mortality at 200 ppm [9]

CCS(=O)(=O)c1cc(-c2cc(F)cc(F)c2)cnc1-c1nc2cc(C(F)(F)F)n(C3CC3)c(=O)c2n1C [Compound A6, 5-cyclopropyl-2-[5-(3,5-difluorophenyl)-3-ethylsulfonyl-2-pyridyl]-3-methyl-6-(trifluoromethyl)imidazo[4,5-c]pyridin-4-one]
≥ 80%: mortality at 200 ppm [1] | percent effect (mortality or growth inhibition) at 200 ppm [2] | percent effect (mortality or growth inhibition) at 200 ppm [3] | mortality at 200 ppm [4] | mortality at 200 ppm [5] | percent effect (mortality or growth inhibition) at 200 ppm [6] | percent control (mortality, anti-feedant effect or growth inhibition) at 200 ppm [7] | percent effect (mortality, anti-feeding or growth inhibition) at 12.5 ppm [8] | mortality at 200 ppm [9]

CCS(=O)(=O)c1cc(-c2cc(C(F)(F)F)ccn2)cnc1-c1nc2cc(C(F)(F)F)n(C3CC3)c(=O)c2n1C [Compound A7, 5-cyclopropyl-2-[3-ethylsulfonyl-5-[4-(trifluoromethyl)-2-pyridyl]-2-pyridyl]-3-methyl-6-(trifluoromethyl)imidazo[4,5-c]pyridin-4-one]
≥ 80%: mortality at 200 ppm [1] | percent effect (mortality or growth inhibition) at 200 ppm [2] | percent effect (mortality or growth inhibition) at 200 ppm [3] | mortality at 200 ppm [4] | mortality at 200 ppm [5] | percent effect (mortality or growth inhibition) at 200 ppm [6] | percent control (mortality, anti-feedant effect or growth inhibition) at 200 ppm [7]

CCS(=O)(=O)c1cc(C2(C#N)CC2)cnc1-c1nc2cc(C(F)(F)F)n(C3CC3)c(=O)c2n1C [Compound A31, 1-[6-[5-cyclopropyl-3-methyl-4-oxo-6-(trifluoromethyl)imidazo[4,5-c]pyridin-2-yl]-5-ethylsulfonyl-3-pyridyl]cyclopropanecarbonitrile]
≥ 80%: mortality at 200 ppm [1] | percent effect (mortality or growth inhibition) at 200 ppm [2] | percent effect (mortality or growth inhibition) at 200 ppm [3] | mortality at 200 ppm [4] | mortality at 200 ppm [5] | mortality at 24 ppm [10] | percent effect (mortality or growth inhibition) at 200 ppm [6] | percent control (mortality, anti-feedant effect or growth inhibition) at 200 ppm [7] | percent effect (mortality, anti-feeding or growth inhibition) at 12.5 ppm [8] | mortality at 200 ppm [11] | mortality at 200 ppm [9]

CCS(=O)(=O)c1cc(-n2cnc(Cl)n2)cnc1-c1nc2cc(C(F)(F)F)n(C3CC3)c(=O)c2n1C [Compound A34, 2-[5-(3-chloro-1,2,4-triazol-1-yl)-3-ethylsulfonyl-2-pyridyl]-5-cyclopropyl-3-methyl-6-(trifluoromethyl)imidazo[4,5-c]pyridin-4-one]
≥ 80%: percent effect (mortality or growth inhibition) at 200 ppm [2] | percent effect (mortality or growth inhibition) at 200 ppm [3] | mortality at 200 ppm [4] | mortality at 200 ppm [5] | percent effect (mortality or growth inhibition) at 200 ppm [6] | percent control (mortality, anti-feedant effect or growth inhibition) at 200 ppm [7] | percent effect (mortality, anti-feeding or growth inhibition) at 12.5 ppm [8]
